Data on seven molecules can be found in patent US6440690B1, “Peptides for the activation of the immune system in humans and animals” (priority 1995, dated 2002).

Entries after “also recorded” stand apart in the source; their conditions may differ. Ends that are not written are not given here.

What is called MIC is the smallest concentration in the dilution series that meets the test's criterion for growth inhibition.

The test system of assay [1] is Leishmania major. The assay is described as follows: Murine cutaneous leishmaniasis, drug administration to infected Balb/c mice (TABLE V). Format: in vivo. The source says: To investigate the peptide's efficacy in affecting leishmania parasites in vivo, murine cutaneous-leishmaniasis models were used in which mice inoculated with Leishmania major promastigotes were allowed to develop a characteristic cutaneous lesion that attained a mean diameter of […] at day 27 of inoculation. Frommel et al., 1988 , Infection and Immunity 56:843. Treatment consisted of 3 peptide injections at intervals of 5 days and was compared with the effect induced by sodium stibogluconate, the current anti-leishmaniasis drug of choice. After injections, samples drawn periodically from the lesion area were analyzed for assessment of parasites evolution.
Methods: Female mice, 6 to 8 weeks old, were inoculated with Leishmania major promastigotes (1×10^6) at the proximal portion of the tail as described in Frommel et al., 1988, Infection and Immunity 56:843. […] Simultaneously, evolution of the cutaneous lesion was assessed by direct measurement of the necrotic zone of the lesion.
Methods. Cytokine concentrations in serum of treated and untreated Balb/c mice were determined by enzyme-immunoassay (Kit Genzyme®) using murine anti-IFN-γ or anti-TNF-α monoclonal antibodies and the corresponding rabbit polyclonal antibodies conjugated to peroxidase, following the manufacturer instructions.

The test system of assay [2] is Leishmania major. The assay can be described thus: Murine cutaneous leishmaniasis, SPYY i.v. in Balb/c mice. Format: in vivo. The conditions noted are these: same doses as SPYY, 6 mice.
Assay [3] deals with Pseudonomas aeruginosa. To be noted: U.S. Pat. No. 5,221,664; cited from earlier work.
Assay [4] concerns pathogenic microorganisms including bacteria, yeasts, filamentous fungi and protozoa. The assay can be described thus: Antimicrobial activity on the spectrum of microorganisms of TABLE I. To be noted: same experimental conditions. The format is cell-based. How it is done: Methods. […] Antimicrobial assays were performed as described in Mor and Nicolas, 1994, J. Biol. Chem. 269:1934-1939. The effect on leishmania was assessed after 1 hour peptide exposure by counting living cells following trypan blue […]. Promastigotes were cultured (1×10^5 cells/ml) at 26° C. […] Trop. Med. Parasitol. 78:423-425, and cultured (1×10^4 cells/ml) at 37° C. Reversibility of inhibition was assessed by incubating 0.5 ml suspension containing 1×10^6 cells/ml in culture media in presence of peptide concentration of 0.2 mg/ml. After various incubation periods, aliquots were centrifuged at 900 g, the pellet washed and reincubated for 24 hours in fresh culture medium.
To verify the reversibility of inhibition, treated suspensions were thoroughly washed at various periods and reincubated in fresh medium.

Assay [5] can be described thus: Dissipation of Diffusion Potential Assay (membrane permeation). To be noted: SUV pretreated with diS-C2-5 and valinomycin. How it is done: Methods: Small unilamellar vesicles (SUV) were prepared by sonication of PC/PS (1:1 w/w) and cholesterol (10% by weight) as described in Shai et al., 1991, J. Biol. Chem. 266:22346-54. Membrane permeation was assessed using the diffusion potential assay. Sims et al., 1974, Biochemistry 13:3315-3330; Shai et al., 1991, J. Biol. Chem. 266:22346-54. […] Maximal activity of the peptides was plotted versus peptide/lipid molar ratio.

Assay [6] has as its system Leishmania. The conditions noted are these: 300 mg/kg for 20-40 injections; cited from earlier work.

As to `O.O.O.O.O.O.O.O.O.O=C([O-])[C@@H]1[O][Sb]2([O-])([O][Sb]34([OH])[O][C@H]([C@H](O)CO)[C@H]([O]3)[C@H](C(=O)[O-])[O]4)[O][C@H]([C@H](O)CO)[C@@H]1[O]2.[Na+].[Na+].[Na+]` [NaSG, sodium stibogluconate], the “outcome of the cutaneous lesion / disease” value in assay [1] (Balb/c, up to twelve weeks post inoculation and later) is reported as “reduced; also recorded: complete healing or skin cicatrization were not observed”. Moreover, the “reduction of number of parasites and lesion size” value in assay [1] (mouse, in vivo) is reported as “partially effective”.
“EEEKRENEDEEKQDDEQSEM [acidic peptide, helical acidic synthetic peptide, control]”: the “control peptide compared with physiological water control” value in assay [2] is given as “No significant differences”.
In the case of Magainin II: magainin peptide, in assay [3], the minimal inhibitory concentration (MIC) was 256 µM.
With “NPY: human NPY, 36-residue peptide of the pancreatic peptide family”, in assay [4], the “antimicrobial potency compared with SPYY” value is “inhibitory activity at comparable concentrations”.
As to PEEMNKYLTALRHYINLVTRQRY-NH2 [SPYY14-36], the membrane permeation result in assay [5] is given as “permeated phospholipid vesicles”. Besides, the “antimicrobial potency compared with SPYY” value in assay [4] is “comparable molar potency”.
In the case of “PYY: human PYY, 36-residue peptide of the pancreatic peptide family”, the “antimicrobial potency compared with SPYY” value in assay [4] is given as “inhibitory activity at comparable concentrations”.
Take meglumine antimoniate [Glucantime]: in assay [6], the outcome of therapy was “does not cure the disease but only results in a transient reduction of the symptoms”.
